Measured values: patent US9511091B2, “Rare earth metal compounds, methods of making, and methods of using the same” (Spectrum Pharmaceuticals, Inc., priority 2002, dated 2016)

Key:
[1] = reactivity with respect to phosphate: phosphate removal from pH 3 Na2HPO4/HCl stock solution; format: binding; settings: for Initial 1st order rate constant k1: calculated from the experimental points for the first minute of the reaction, pH 3; for Fraction of PO4 remaining after 10 min: pH 3 stock solution, La 3 times the stoichiometric amount; for rate of removal of phosphate compared with LaOCl of Example 1: FIG. 14, pH 3
Protocol: A desirable lanthanum carbonate hydroxide is LaCO3OH. […] To determine the reactivity of the lanthanum carbonate hydroxide compound with respect to phosphate, the following procedure was used. A stock solution containing 13.75 g/l of anhydrous Na2HPO4 and 8.5 g/l of HCl is prepared. The stock solution is adjusted to pH 3 by the addition of concentrated HCl. 100 ml of the stock solution is placed in a beaker with a stirring bar. A sample of lanthanum carbonate hydroxide powder is added to the solution. The amount of lanthanum carbonate hydroxide powder is such that the amount of La in suspension is 3 times the stoichiometric amount needed to react completely with the phosphate. Samples of the suspension are taken at intervals, through a filter that separated all solids from the liquid. The liquid sample is analyzed for phosphorous.
(§1) To determine the reactivity of the lanthanum compound with respect to phosphate, the following test was conducted. A stock solution containing 13.75 g/l of anhydrous Na2HPO4 and 8.5 g/l of HCl was prepared. The stock solution was adjusted to pH 3 by the addition of concentrated HCl. An amount of 100 ml of the stock solution was placed in a beaker with a stirring bar. The lanthanum oxychloride from above was added to the solution to form a suspension. The amount of lanthanum oxychloride was such that the amount of La in suspension was 3 times the stoichiometric amount needed to react completely with the phosphate. Samples of the suspension were taken at time intervals, through a filter that separated all solids from the liquid. The liquid sample was analyzed for phosphorous.
as §1, with “Lanthanum carbonate hydroxide powder made as described” for “The lanthanum oxychloride from”, “solution.” for “solution to form a suspension.”, “carbonate hydroxide powder” for “oxychloride”, “intervals” for “intervals,”
(§2) To determine the reactivity of this lanthanum compound with respect to phosphate, the following test was conducted. A stock solution containing 13.75 g/l of anhydrous Na2HPO4 and 8.5 g/l of HCl was prepared. The stock solution was adjusted to pH 3 by the addition of concentrated HCl. An amount of 100 ml of the stock solution was placed in a beaker with a stirring bar. Anhydrous lanthanum oxycarbonate made as described above, was added to the solution. The amount of anhydrous lanthanum oxycarbonate was such that the amount of La in suspension was 3 times the stoichiometric amount needed to react completely with the phosphate. Samples of the suspension were taken at intervals, through a filter that separated all solids from the liquid. The liquid sample was analyzed for phosphorous.
as §2, with “reactivity of the lanthanum compound” for “reactivity of this lanthanum compound”, “stirring bar. La2CO5 powder, made as” for “stirring bar. Anhydrous lanthanum oxycarbonate made as”, “amount of lanthanum oxycarbonate” for “amount of anhydrous lanthanum oxycarbonate”, “taken at intervals through a” for “taken at intervals, through a”

[2] = specific surface area by the BET method; format: physicochemical
Protocol: For each sample, the surface area measured by the BET method and the fraction of phosphate remaining after 10 min of reaction have been tabulated. […] The rate constant k1 is defined by the following equation: d[PO4]/dt=−k1[PO4]
An aqueous HCl solution having a volume of 334.75 ml and containing LaCl3 (lanthanum chloride) at a concentration of 29.2 wt % as La2O3 was added to a 4 liter beaker and heated to 80° C. with stirring. The initial pH of the LaCl3 solution was 2.2. Two hundred and sixty five ml of an aqueous solution containing 63.59 g of sodium carbonate (Na2CO3) was metered into the heated beaker using a small pump at a steady flow rate for 2 hours. Using a Buchner filtering apparatus fitted with filter paper the filtrate was separated from the white powder product. The filter cake was mixed four times, each with 2 liters of distilled water and filtered to wash away the NaCl formed during the reaction. The washed filter cake was placed into a convection oven set at 105° C. for 2 hours or until a stable weight was observed. […] The surface area of the product was determined by the BET method. The test was repeated 3 times and slightly different surface areas and different reaction rates were obtained as shown in Table 1.

[3] = binding efficiency test, spiked water; settings: 0.50 g in 30.0 ml spike solution, approximately 1 mg/l of each element, 18 hrs, room temperature
Protocol: Tests were run to determine the binding efficiency of eight different compounds for twenty-four different elements.
The main objective of the tests was to investigate the efficiency at which the compounds bind arsenic and selenium, in view of their use in removing those elements from drinking water. Twenty-one different anions were also included to explore further possibilities. The tests were performed as follows:
The compounds given in Table 6 were added to water and a spike and were vigorously shaken at room temperature for 18 hrs. The samples were filtered and the filtrate analyzed for a suite of elements including Sb, As, Be, Cd, Ca, Cr, Co, Cu, Fe, Pb, Mg, Mn, Mo, Ni, Se, Tl, Ti, V, Zn, Al, Ba, B, Ag, and P.
2. Add standard solutions of the elements given above to make solutions containing approximately 1 mg/l of each element.
1. Weigh 0.50 g of each compound into its own 50 ml centrifuge tube.
2. Add 30.0 ml of the spike solution to each.
3. Cap tightly and shake vigorously for 18 hrs.
4. Filter solution from each centrifuge tube through 0.2 µm syringe filter. Obtain about 6 ml of filtrate.
5. Dilute filtrates 5:10 with 2% HNO3. Final Matrix is 1% HNO3.

[4] = after 10 min, pH 3, La 3 times the stoichiometric amount

% Analyte Removed As [3] [%] | % Analyte Removed Be [3] [%] | % Analyte Removed Ca [3] [%] | % Analyte Removed Cd [3] [%] | % Analyte Removed Co [3] [%] | % Analyte Removed Cr [3] [%] | % Analyte Removed Cu [3] [%] | % Analyte Removed Fe [3] [%] | % Analyte Removed Mg [3] [%] | % Analyte Removed Mn [3] [%] | % Analyte Removed Pb [3] [%] | % Analyte Removed Sb [3] [%] | Structure (SMILES) | Initial 1st order rate constant k1 [1] [min⁻¹] | Fraction of PO4 remaining after 10 min [1] | BET surface area [2] [m^2/g] | further results
 |  |  |  |  |  |  |  |  |  |  |  | O=C([O-])[O-].[La+3].[La+3].[O-2].[O-2] [Sample 7, La2O2CO3] | 0.36 | 0.327 | 16.5 | 
76 | 89 | 0 | 46 | 28 | 100 | 88 | 100 | 0 | 28 | 99 | 86 | [O]=[La][Cl] [LaOCl, lanthanum oxychloride] |  |  |  | relationship between the amount of phosphate bound or absorbed and time ([1]; compared with commercial hydrated lanthanum carbonates): closer to linear
 |  |  |  |  |  |  |  |  |  |  |  | O=C([O-])[O-].[La+3].[OH-] [Sample 2, LaCO3OH] | 0.929 | 0.153 | 35.9 | 
 |  |  |  |  |  |  |  |  |  |  |  | O=C([O-])[O-].[La+3].[La+3].[O-2].[O-2] [Sample 4, La2CO5] | 0.545 | 0.275 | 25.6 | 
 |  |  |  |  |  |  |  |  |  |  |  | O=C([O-])[O-].[La+3].[La+3].[O-2].[O-2] [Sample 8, La2CO5] | 0.434 | 0.483 | 11.9 | 
 |  |  |  |  |  |  |  |  |  |  |  | O=C([O-])[O-].[La+3].[OH-] [Sample 1, LaCO3OH] | 0.949 | 0.130 | 41.3 | 
 |  |  |  |  |  |  |  |  |  |  |  | O=C([O-])[O-].[La+3].[La+3].[O-2].[O-2] [Sample 6, La2CO5] | 0.391 | 0.308 | 18.8 | 
85 | 97 | 21 | 95 | 69 | 100 | 89 | 92 | 0 | 94 | 92 | 89 | [La+3].[La+3].[O-2].[O-2].[O-2] [La2O3] |  |  |  | 
 |  |  |  |  |  |  |  |  |  |  |  | O=C([O-])[O-].[La+3].[OH-] [Sample 3, LaCO3OH] | 0.837 | 0.171 | 38.8 | 
93 | 8 | 0 | 4 | 0 | 6 | 11 | 49 | 0 | 1 | 97 | 96 | [O]=[Ti]=[O] [TiO2] |  |  |  | % Analyte Removed As ([3]; listed as compound 6): most efficient
 |  |  |  |  |  |  |  |  |  |  |  | O.O=C([O-])[O-].O=C([O-])[O-].O=C([O-])[O-].[La+3].[La+3] [Sample 10, La2(CO3)3•1H2O, reference compound] | 0.094 | 0.790 | 2.9 | rate of removal of phosphate compared with LaOCl of Example 1 [1]: faster at the beginning but slower after about 3 minutes
 |  |  |  |  |  |  |  |  |  |  |  | O=C([O-])[O-].[La+3].[La+3].[O-2].[O-2] [Sample 5, La2O2CO3] | 0.483 | 0.278 | 18 | 

Structure (SMILES) | % Analyte Removed As [3] [%] | % Analyte Removed Be [3] [%] | % Analyte Removed Ca [3] [%] | % Analyte Removed Cd [3] [%] | % Analyte Removed Co [3] [%] | % Analyte Removed Cr [3] [%] | % Analyte Removed Cu [3] [%] | % Analyte Removed Fe [3] [%] | % Analyte Removed Mg [3] [%] | % Analyte Removed Mn [3] [%] | % Analyte Removed Pb [3] [%] | % Analyte Removed Sb [3] [%] | Initial 1st order rate constant k1 [1] [min⁻¹] | Fraction of PO4 remaining after 10 min [1] | BET surface area [2] [m^2/g] | further results
O.O.O.O.O=C([O-])[O-].O=C([O-])[O-].O=C([O-])[O-].[La+3].[La+3] [La2(CO3)3•4H2O, reference compound] | 25 | 41 | 28 | 37 | 20 | 94 | 0 | 56 | 0 | 20 | 90 | 84 |  |  |  | rate of removal of phosphate compared with LaOCl of Example 1 [1]: faster at the beginning but slower after about 3 minutes; capacity of phosphate removal (PO4 removed/g of La compound) [1, 4]: 45 mg PO4/g; phosphate in solution removed [1, 4]: 38%; % Analyte Removed As ([3]; listed as Commercial lanthanum carbonate): less effective
O=C([O-])[O-].O=C([O-])[O-].[Ti+4] [Ti(CO3)2, Ti carbonate] | 93 | 100 | 99 | 100 | 99 | 99 | 98 | 100 | 79 | 100 | 98 | 96 |  |  |  | % Analyte Removed As ([3]; listed as compound 5): most efficient
